Data from publication PMC5577601, “The Neuroprotective Marine Compound Psammaplysene A Binds the RNA-Binding Protein HNRNPK” (Marine Drugs, 2017).

Target: T1, HNRNPK (Homo sapiens, UniProt P61978)
T1 construct: GST-HNRNPK
Assay: surface plasmon resonance (Biacore […]), RNA-saturated GST-HNRNPK vs GST; a second estimate vs GST-HNRNPI gave Kd […]
Format: binding

Kd: 77.3 µM
SMILES: CN(C)CCCOc1c(Br)cc(/C=C/C(=O)NCCCOc2c(Br)cc(CCN(C)C)cc2Br)cc1Br [PA, Psammaplysene A]
